These are literature values, as cited in US20180030541A1, “METHOD FOR PREDICTING SENSITIVITY TO VASCULAR ENDOTHELIAL GROWTH FACTOR RECEPTOR INHIBITOR” (CBSBIOSCIENCE INC., priority 2014, published 2018).

The data set concerns hepatocellular carcinoma. Particulars: drug approved for treating hepatocellular carcinoma; cancer patients.

Take `CNC(=O)c1cc(Oc2ccc(NC(=O)Nc3ccc(Cl)c(C(F)(F)F)c3)cc2)ccn1` [Nexavar, Sorafenib]: the side effects entry is reported as “very high” and the treatment rate is on record as 2-3%.
